Assay results from ChEMBL document CHEMBL4011652, “Discovery of Novel Potent Reversible and Irreversible Myeloperoxidase Inhibitors Using Virtual Screening Procedure” (J Med Chem, 2017).
Calls of active or inactive are those of the source. No cut-off for these calls is given here.

Columns and labels:
[1] = molecular target: T1, Myeloperoxidase (Homo sapiens, UniProt P05164); assay: Inhibition of recombinant MPO (unknown origin) assessed as reduction in taurine chloramine production preincubated with enzyme and taurine followed by H2O2 addition measured after 5 mins
T1 sequence (P05164 whole entry): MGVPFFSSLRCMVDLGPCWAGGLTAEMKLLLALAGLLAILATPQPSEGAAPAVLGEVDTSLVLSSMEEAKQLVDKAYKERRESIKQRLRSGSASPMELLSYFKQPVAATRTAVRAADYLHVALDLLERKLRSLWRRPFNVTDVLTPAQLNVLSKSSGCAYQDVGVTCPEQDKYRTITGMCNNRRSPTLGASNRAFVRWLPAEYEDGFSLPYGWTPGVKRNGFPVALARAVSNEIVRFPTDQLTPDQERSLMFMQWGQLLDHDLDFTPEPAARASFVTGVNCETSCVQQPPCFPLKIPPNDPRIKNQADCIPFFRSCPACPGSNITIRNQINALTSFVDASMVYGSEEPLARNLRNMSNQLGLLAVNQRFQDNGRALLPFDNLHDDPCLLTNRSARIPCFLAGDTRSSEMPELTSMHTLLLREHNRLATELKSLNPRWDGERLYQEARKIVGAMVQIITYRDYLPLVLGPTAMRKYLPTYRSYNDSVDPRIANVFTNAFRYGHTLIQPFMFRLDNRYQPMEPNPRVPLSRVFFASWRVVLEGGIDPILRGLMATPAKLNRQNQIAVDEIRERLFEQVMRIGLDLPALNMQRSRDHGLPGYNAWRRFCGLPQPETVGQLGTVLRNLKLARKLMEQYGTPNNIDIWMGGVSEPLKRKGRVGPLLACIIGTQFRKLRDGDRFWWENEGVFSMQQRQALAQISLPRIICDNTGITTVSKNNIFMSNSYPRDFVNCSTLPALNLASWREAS

[2] = molecular target: T2, Myeloperoxidase (Homo sapiens) (UniProt P05164); assay: Inhibition of recombinant MPO (unknown origin) assessed as reduction in TMB peroxidation by measuring residual activity at 5 uM in absence of H2O2 incubated for 5 mins followed by 100 fold enzyme dilution relative to control
T2 sequence (whole entry): T1 sequence (P05164 whole entry)

[3] = molecular target: T2, Myeloperoxidase (Homo sapiens); assay: Inhibition of recombinant MPO (unknown origin) assessed as reduction in TMB peroxidation by measuring residual activity at 5 uM in presence of H2O2 incubated for 5 mins followed by 100 fold enzyme dilution relative to control
[4] = molecular target: T2, Myeloperoxidase (Homo sapiens); assay: Inhibition of recombinant MPO (unknown origin) assessed as reduction in TMB peroxidation by measuring residual activity at 5 uM in presence of H2O2 and NaCl incubated for 5 mins followed by 100 fold enzyme dilution relative to control
[5] = molecular target: T1, Myeloperoxidase; assay: Inhibition of recombinant MPO (unknown origin) assessed as reduction in LDL oxidation in presence of H2O2 and HCl after 5 mins by ELISA
[6] = molecular target: Lactoperoxidase (Bos taurus, UniProt P80025); assay: Inhibition of bovine milk LPO assessed as reduction in NaOSCN production in presence of H2O2/NaSCN after 5 mins
[7] = molecular target: T2, Myeloperoxidase (Homo sapiens); assay: Inhibition of MPO (unknown origin) assessed as apparent bi-molecular rate constant for PorFe(4)=O radical reduction by stopped-flow spectroscopic analysis
[8] = molecular target: T1, Myeloperoxidase; assay: Inhibition of MPO in human neutrophils assessed as reduction in HOCl production preincubated for 30 mins followed by H2O2 addition by APF staining based flow cytometry
[9] = tested on: Neutrophil; assay: Induction of apoptosis in human neutrophils assessed as compound concentration required for effect after 30 mins by JC1 staining based flow cytometry; format: cell-based; details: 0.5 h
[10] = tested on: NHDF; assay: Cytotoxicity against NHDF assessed as reduction in cell viability after 72 hrs by MTT assay; format: cell-based; details: Homo sapiens
[11] = tested on: Neutrophil; assay: Induction of apoptosis in human neutrophils up to 1 mM after 30 mins by JC1 staining based flow cytometry; format: cell-based; details: 0.5 h
[12] = tested on: Neutrophil; assay: Induction of apoptosis in human neutrophils assessed as increase in necrotic cells at >= 50 uM after 30 mins by JC1 staining based flow cytometry; format: cell-based; details: 0.5 h
[13] = Selectivity ratio of IC50 for bovine milk LPO to IC50 for recombinant MPO (unknown origin)
[14] = molecular target: T2, Myeloperoxidase (Homo sapiens); details: 5 uM
Description: Irreversible inhibition of recombinant MPO (unknown origin) assessed as reduction in guaiacol peroxidation by measuring enzyme activity recovery at 5 uM incubated for 20 mins followed by 200 fold dilution measured for 10 mins

[15] = molecular target: T2, Myeloperoxidase (Homo sapiens); details: 1 to 5 uM
Description: Inhibition of MPO in human neutrophils assessed as reduction in HOCl production at 1 to 5 uM preincubated for 30 mins followed by H2O2 addition by APF staining based flow cytometry relative to control

[16] = tested on: Plasma; assay: Plasma concentration in po dosed human; format: ADME, organism-based; details: in vivo
[17] = molecular target: T2, Myeloperoxidase (Homo sapiens); assay: Inhibition of recombinant MPO (unknown origin) assessed as reduction in taurine chloramine production at 5 uM preincubated with enzyme and taurine followed by H2O2 addition measured after 5 mins relative to control
[18] = molecular target: T2, Myeloperoxidase (Homo sapiens); assay: Inhibition of MPO (unknown origin) assessed as apparent bi-molecular rate constant for PorFe(4)-OH reduction by stopped-flow spectroscopic analysis

CCN1CCC[C@H]1CNC(=O)c1cc(S(N)(=O)=O)ccc1OC [LEVOSULPIRIDE]
IC50 [1]: 7680 nM

COc1ccc2c(C)nc(NC(=N)N)nc2c1
IC50 [1]: 44 nM
Activity [2]: 84%
Activity [3]: 4%
Activity [4]: 5%
IC50 [5]: 90 nM
IC50 [6]: 3200 nM
Kapp [7]: 1.9 ×10⁶ /M/s
IC50 [8]: 93100 nM
Activity [9]: > 50 µM
IC50 [10]: 17000 nM
Activity [11]: Non-Toxic
Activity [12]: Toxic
Ratio IC50 [13]: 73
inhibition [14]: Active
inhibition [15]: 67 to 71%

Cc1nc(N=C(N)N)nc2cc(Cl)ccc12
IC50 [1]: 96 nM

COc1cc(N[C@H](C)CCCN)c2ncccc2c1
IC50 [1]: 300 nM
Activity [2]: 86%
Activity [3]: 91%
Activity [4]: 86%
IC50 [6]: 800 nM
IC50 [10]: > 50000 nM
Ratio IC50 [13]: 3

C[C@H]1CN(c2cc3c(cc2F)c(=O)c(C(=O)O)cn3C2CC2)CCN1
IC50 [1]: > 5000 nM

Cc1nc(NC(=N)N)nc2ccc(Cl)cc12
IC50 [1]: 630 nM

Fc1ccc([C@@H]2CCNC[C@H]2COc2ccc3c(c2)OCO3)cc1 [PAROXETINE]
IC50 [1]: 20 nM

CCN(CC)CCNC(=O)c1cc(Cl)c(N)cc1OC [METOCLOPRAMIDE]
IC50 [1]: 350 to 1000 nM
IC50 [5]: > 5000 nM
IC50 [6]: > 5000 nM
IC50 [10]: > 50000 nM
concentration [16]: 200 to 400 nM

O=C(N/N=C/c1ccc([N+](=O)[O-])o1)c1ccc(O)cc1 [NIFUROXAZIDE]
IC50 [1]: > 5000 nM

c1c2c(cc3c4n(nc13)CCS4)OCO2
IC50 [1]: 85 nM

Fc1ccc2oc([C@H]3CCNC3)nc2c1
IC50 [1]: 1740 nM
IC50 [10]: > 50000 nM

CN(C)CCCN1c2ccccc2Sc2ccc(C(F)(F)F)cc21
inhibition [17]: 12.3%

Cc1nc(NC(=N)N)nc2ccccc12
IC50 [1]: 900 nM

Cc1nc(N=C(N)N)nc2cc(F)ccc12
IC50 [1]: 40 nM
IC50 [6]: 3900 nM
Ratio IC50 [13]: 30

O=c1cc(-c2ccc(O)cc2)oc2cc(O)ccc12
IC50 [1]: 5790 nM

NNc1nncc2ccccc12 [HYDRALAZINE]
Activity [2]: 76%
Activity [3]: 9%
Activity [4]: 6%
IC50 [5]: 2360 nM
IC50 [6]: 1200 nM
Kapp [7]: 7.1 ×10⁶ /M/s
IC50 [10]: > 50000 nM
Ratio IC50 [13]: 1.3

CC(C)NCC(=O)c1nc2cc(F)ccc2[nH]1
IC50 [1]: 130 nM
Activity [2]: 79%
Activity [3]: 87%
Activity [4]: 81%
IC50 [6]: > 5000 nM
IC50 [10]: > 50000 nM

N#CC1=C(N)Oc2cc(O)ccc2C1c1cccc(C(F)(F)F)c1 (stereo not drawn)
IC50 [1]: 10100 nM

O=c1c(O)c(-c2ccc(O)c(O)c2)oc2cc(O)cc(O)c12 [QUERCETIN]
IC50 [1]: 1150 nM
Activity [2]: 72%
Activity [3]: 78%
Activity [4]: 79%
IC50 [5]: 3100 nM
IC50 [6]: 6100 nM
IC50 [10]: > 50000 nM
Ratio IC50 [13]: 5

Nc1cc(=O)[nH]c(CSc2ccc(F)c3ccccc23)n1
inhibition [17]: 37.2%

CCn1cc(C(=O)O)c(=O)c2cc(F)c(N3CCN[C@@H](C)C3)c(F)c21
IC50 [1]: > 5000 nM
inhibition [17]: inactive
Kapp [7]: 3.1 ×10⁴ /M/s
Kapp [18]: 1.2 ×10³ /M/s

NCCCCc1c[nH]c2ccc(F)cc12
IC50 [1]: 8 nM

CSc1ccc2c(c1)N(CC[C@H]1CCCCN1C)c1ccccc1S2
IC50 [1]: > 5000 nM
inhibition [17]: 24.2%
Kapp [7]: 5.2 ×10⁶ /M/s
Kapp [18]: 1.7 ×10⁴ /M/s

Fc1ccc2[nH]c([C@@H]3CCN(CC4NC=CN4)C3)nc2c1
IC50 [1]: 50 nM
Activity [2]: 83%
Activity [3]: 84%
Activity [4]: 84%
IC50 [5]: 120 nM
IC50 [6]: > 5000 nM
IC50 [8]: 314000 nM
Activity [9]: > 50 µM
IC50 [10]: > 50000 nM
Activity [11]: Non-Toxic

O=c1c(O)c(-c2ccc(O)cc2)oc2cc(O)cc(O)c12 [KAEMPFEROL]
IC50 [1]: 2240 nM
Activity [2]: 78%
Activity [3]: 81%
Activity [4]: 84%

Cc1cccc(Nc2ccccc2C(=O)O)c1C [MEFENAMIC ACID]
IC50 [1]: 980 nM
Activity [2]: 87%
Activity [3]: 82%
Activity [4]: 87%
IC50 [5]: 2210 nM

Cc1nc(N=C(N)N)nc2ccc(Br)cc12
IC50 [1]: 756 nM

Cc1nc(N=C(N)N)nc2ccc(F)cc12
IC50 [1]: 145 nM

O=c1cc(-c2ccc(O)cc2)oc2cc(O)cc(O)c12 [APIGENIN]
IC50 [1]: 3800 nM
IC50 [6]: 17800 nM
Ratio IC50 [13]: 5.6

Cc1ccc(-c2cc(C(F)(F)F)nn2-c2ccc(S(N)(=O)=O)cc2)cc1
inhibition [17]: 11%

C[C@H](COc1ccccc1)N[C@@H](C)[C@@H](O)c1ccc(O)cc1
inhibition [17]: 5.32%

Cc1nc(NC(=N)N)nc2cc(Br)ccc12
IC50 [1]: 106 nM

O[C@@H]1CN[C@H](c2nc(Cc3ccc(F)cc3Cl)no2)C1
IC50 [1]: 4680 nM
